Measurements as given in the NIST ThermoML archive (doi:10.1021/je0496995).

Assays:
[1] = mn = molality of the nth substance listed, in mol/kg; settings: Liquid, m2 = 0; for viscosity: 101.3 kPa, Capillary tube (Ostwald / Ubbelohde) method; for mass density: 101.33 kPa, Pycnometric method
[2] = Liquid; for viscosity: 101.3 kPa, Capillary tube (Ostwald / Ubbelohde) method; for mass density: 101.33 kPa, Pycnometric method
[3] = wn = mass fraction of the nth substance listed; settings: 101.3 kPa, Liquid; for viscosity: Capillary tube (Ostwald / Ubbelohde) method; for mass density: Pycnometric method

Cc1cccnc1 [3-methylpyridine] + O=C(O)c1cccnc1
[1]
Settings	mass density [kg/m3]	viscosity [mPa·s]
293.15 K	956	0.9459
303.15 K	946.6	0.8318
313.15 K	937.7	0.7352
323.15 K	928.3	0.6565
333.15 K	919.3	0.5936
343.15 K	910.3	0.539

Cc1cccnc1 [3-methylpyridine]
[2]
Settings	mass density [kg/m3]	viscosity [mPa·s]
293.15 K	956	0.9459
303.15 K	946.6	0.8318
313.15 K	937.7	0.7352
323.15 K	928.3	0.6565
333.15 K	919.3	0.5936
343.15 K	910.3	0.539

Cc1cccnc1 [3-methylpyridine] + O
[3]
Settings	mass density, w1 = 0.1 [kg/m3]	mass density, w1 = 0.15 [kg/m3]	viscosity, w2 = 0.1 [mPa·s]	viscosity, w2 = 0.15 [mPa·s]
293.15 K	997.8	997.5	1.291	1.448
303.15 K	994.4	993.7	1.002	1.143
313.15 K	990.2	989.2	0.8117	0.9152
323.15 K	985.2	983.7	0.6796	0.7673
333.15 K	979.6	977.7	0.5794	0.6568
343.15 K	973.7	971.7	0.5053	0.5712
